Results: publication PMC8579695, “The Stringent Response Inhibits 70S Ribosome Formation in Staphylococcus aureus by Impeding GTPase-Ribosome Interactions” (mBio, 2021)

Key:
[1] = target: HflX (Staphylococcus aureus, UniProt Q2FYY9); test: GTPase activity assay of wild-type and Atto488-labeled HflX; type: biochemical; details: 100 μM ppGpp, 1 μM GTP, 0.1 μM RA-GTPase, 0.1 μM 70S ribosomes, 37°C, 60 min
Source text: (§1) To gain further insight into the binding mechanism and how (p)ppGpp reduces the association of RA-GTPases to the ribosomal subunits, we used a stopped-flow technique with fluorescent derivatives of the RA-GTPases (Fig. 3A). Structural predictions of all four RA-GTPases were built by homology modeling using available structures to assess the availability of suitable residues for fluorescence labeling (see Fig. S3A and B) ([43]). Both RbgA and HflX were amenable to covalent linkage to the fluorophore Atto-488 using maleimide chemistry with exposed cysteine residues. […]
(§2) Supplementary file : FIG S3 Labeling sites and GTPase activity of Atto488-labelled proteins. […] Enzymatic activity was monitored by TLC and quantified by using ImageQuant. […]
(§3) GTPase activity assays were performed as previously described ([10]). Briefly, the ability of proteins to hydrolyze GTP was determined by incubating 100 nM recombinant protein with 100 nM S. aureus 70S ribosomes, 1 μM GTP and 2.78 nM [α-^32P]GTP in 40 mM Tris (pH 7.5), 100 mM NaCl (100 mM KCl for RbgA), and 10 mM MgCl2 at 37°C for the indicated times. […] The radioactive spots were exposed to a BAS-MS imaging plate (Fujifilm) and visualized using an LA 7000 Typhoon PhosphorImager (GE Healthcare), and images were quantified using ImageQuant (GE Healthcare).

[2] = target: RbgA (Staphylococcus aureus, UniProt A0A0H2XK72); test: GTPase activity assay of wild-type and Atto488-labeled RbgA; type: biochemical; details: 100 μM ppGpp, 1 μM GTP, 0.1 μM RA-GTPase, 0.1 μM 70S ribosomes, 37°C, 60 min
Source text: as §1, §2, §3

[3] = tested on: RA-GTPases RsgA, RbgA, Era, and HflX; test: Hydrolysis of pppGpp by the RA-GTPases; type: biochemical, Staphylococcus aureus
Source text: It is well characterized that rRNA transcription decreases during the stringent response ([39]). In addition, the GTPase activity of ribosome assembly cofactors is inhibited by (p)ppGpp, both of which contribute to a reduction in mature ribosomes within the cell ([27]). To examine mechanistically how (p)ppGpp-GTPase interactions affect the ability of RA-GTPases to associate with ribosomal subunits, we examined the association of each GTPase to either the 30S or 50S ribosomal subunit in the presence of GDP, GTP, ppGpp, and pppGpp, as well as GMPPNP, a nonhydrolyzable analogue of GTP. […] His-tagged GTPases were preincubated with highly pure, salt-washed 70S S. aureus ribosomes in a low-magnesium buffer to encourage ribosomal subunit dissociation, and the amount of each GTPase associated with each of the subunits was quantified by Western immunoblotting with anti-His antibodies after sucrose gradient separation. […]
GTPase activity assays were performed as previously described ([10]). […] The radioactive spots were exposed to a BAS-MS imaging plate (Fujifilm) and visualized using an LA 7000 Typhoon PhosphorImager (GE Healthcare), and images were quantified using ImageQuant (GE Healthcare).

Sequence of HflX (Q2FYY9 entry or part of it): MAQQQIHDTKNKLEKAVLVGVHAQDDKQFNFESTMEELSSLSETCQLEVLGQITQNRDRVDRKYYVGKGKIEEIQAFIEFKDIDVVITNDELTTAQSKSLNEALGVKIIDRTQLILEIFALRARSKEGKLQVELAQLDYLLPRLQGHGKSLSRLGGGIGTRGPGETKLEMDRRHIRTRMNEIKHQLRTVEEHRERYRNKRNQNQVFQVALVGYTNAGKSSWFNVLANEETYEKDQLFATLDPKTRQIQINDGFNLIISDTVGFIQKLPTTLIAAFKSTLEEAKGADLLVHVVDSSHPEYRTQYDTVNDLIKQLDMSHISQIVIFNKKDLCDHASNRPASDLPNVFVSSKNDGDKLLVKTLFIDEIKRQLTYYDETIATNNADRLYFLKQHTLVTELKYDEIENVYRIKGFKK
Sequence of RbgA (A0A0H2XK72 entry or part of it): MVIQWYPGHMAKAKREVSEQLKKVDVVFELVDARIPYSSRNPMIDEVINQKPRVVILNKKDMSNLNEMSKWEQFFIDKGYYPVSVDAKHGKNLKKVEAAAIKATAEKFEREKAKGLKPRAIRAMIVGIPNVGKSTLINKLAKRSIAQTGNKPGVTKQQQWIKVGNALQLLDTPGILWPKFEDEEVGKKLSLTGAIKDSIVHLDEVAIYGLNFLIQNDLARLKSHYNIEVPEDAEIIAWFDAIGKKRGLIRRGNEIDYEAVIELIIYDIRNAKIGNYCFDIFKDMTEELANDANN

| SMILES | inhibition of GTPase activity of Atto488-labeled HflX [1] | inhibition of GTPase activity of Atto488-labeled RbgA [2] | hydrolysis of pppGpp by the four RA-GTPases [3] |
| --- | --- | --- | --- |
| Nc1nc2c(ncn2[C@@H]2O[C@H](COP(=O)(O)OP(=O)(O)O)[C@@H](OP(=O)(O)OP(=O)(O)O)[C@H]2O)c(=O)[nH]1 [ppGpp] | can still be inhibited | can still be inhibited | – |
| Nc1nc2c(ncn2[C@@H]2O[C@H](COP(=O)(O)OP(=O)(O)OP(=O)(O)O)[C@@H](OP(=O)(O)OP(=O)(O)O)[C@H]2O)c(=O)[nH]1 [pppGpp] | – | – | unable to hydrolyze |
